Assay results as given in US20240002846A1, “COMPOSITIONS AND METHODS FOR THE DIAGNOSIS AND TREATMENT OF ITCH” (Duke University, priority 2020, published 2024).
“Also recorded” adds a separate entry of the source.

Experiments:
[1] = test system: extracellular release of miR-146a; experiment: Extracellular release of miR-146a from cultured human keratinocytes (RT-qPCR); format: cell-based
Experimental: Primary human keratinocytes were cultured as previously described (Chen et al. J. Biol. Chem. 2016, 291, 10252-10262). In brief, surgically discarded foreskin samples, obtained from Duke Children's Hospital in accordance to institutionally approved IRB protocol, were incubated with Dispase (Gibco, Gaithersburg, MD, 4 U/mL) for 12-16 h at 4° C. followed by 0.05% trypsin (Gibco, Gaithersburg, MD) for 10-20 min at 37° C. Cells were maintained in keratinocyte serum-free media (Invitrogen, Waltham, MA) with 5% CO2 at 37° C. and used at passage 2-3.
Measurement of released vesicles and extracellular miR-146a from cultured keratinocytes or sera Medium for the cultured keratinocytes was replaced with serum-free medium 2 h before LPC stimulation. Fifteen minutes after LPC, the supernatant of the cells was harvested and subjected to two steps of centrifugation (i) 300 g for 5 min to eliminate remaining cells, (ii) 16,000 g for 30 min to eliminate cell debris and apoptotic bodies. Finally, cell-free supernatants were further purified using a Vesicular Isolation kit (Invitrogen, Waltham, MA) according to the manufacturer's instructions, with final product resuspended in ice-cold PBS. Total RNA extraction was then carried out using a Total RNA Isolation kit (Invitrogen, Waltham, MA). […]

mice = experiment: Effect of inhibitor pretreatment on LPA-, LPC- or miR-146a-induced scratching behavior; format: in vivo, mouse

Cc1c(C(=O)Nc2cccc(C(F)(F)F)c2)cc(-c2ccccc2)n1CCCN1CCOCC1 [HC067047]
effect of TRPV4 inhibitors on LPC-induced release of miR-146a ([1]; inhibitor 10 μM): completely eliminated
effect on LPC-induced itch (TRPV4 inhibitors) (mice; WT mice, i.p. pretreatment 20 mg/kg): a reduction
effect on LPA (18:1)-induced itch (mice; WT mice, i.p. pretreatment 20 mg/kg, LPA 500 μg i.d.): no significant reduction in scratching; also recorded: not significantly altered
effect on LPC-induced itch (TRPV4 inhibitors) (mice; WT mice, i.p. pretreatment 20 mg/kg, listed as HC067): significantly reduced

N#CC(=C(/N)Sc1ccccc1N)/C(C#N)=C(\N)Sc1ccccc1N [U0126]
effect of MEK inhibitor on LPC-induced release of miR-146a ([1]; 10 μM): eliminated; also recorded: abolished
effect on LPC-induced itch (MEK inhibitor) (mice; i.d. pretreatment 20 μg/50 μL): significant reduction; also recorded: significantly attenuated
